Measured values reported in patent publication US9242970B2 (ACTELION PHARMACEUTICALS LTD., priority 2010, dated 2016).
Like-named read-outs stand apart in the source and are kept apart here.

Tests used:
[1] = molecular target: human orexin-1 receptor (Homo sapiens (Human), UniProt O43613); experiment: In vitro assay: intracellular calcium measurements (FLIPR), antagonistic activity; format: cell-based; settings: CHO cells, 3 nM orexin-A, marked values are geometric means of n = 2-6, read-out: IC50 OX1
Sequence of human orexin-1 receptor (O43613 whole entry): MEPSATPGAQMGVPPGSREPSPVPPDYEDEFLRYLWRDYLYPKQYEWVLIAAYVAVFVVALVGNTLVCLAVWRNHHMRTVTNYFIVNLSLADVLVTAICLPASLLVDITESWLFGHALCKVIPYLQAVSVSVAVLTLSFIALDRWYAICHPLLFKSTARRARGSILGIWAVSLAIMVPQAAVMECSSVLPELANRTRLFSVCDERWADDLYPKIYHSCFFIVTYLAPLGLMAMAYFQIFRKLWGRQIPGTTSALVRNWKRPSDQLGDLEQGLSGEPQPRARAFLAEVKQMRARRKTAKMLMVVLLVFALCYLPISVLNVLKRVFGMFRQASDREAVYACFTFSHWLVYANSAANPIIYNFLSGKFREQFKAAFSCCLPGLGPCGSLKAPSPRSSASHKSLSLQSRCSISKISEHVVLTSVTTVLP
Experimental: (§1) In Vitro Assay: Intracellular Calcium Measurements:
(§2) Chinese hamster ovary (CHO) cells expressing the human orexin-1 receptor and the human orexin-2 receptor, respectively, are grown in culture medium (Ham F-12 with L-Glutamine) containing 300 µg/ml G418, 100 U/ml penicillin, 100 µg/ml streptomycin and 10% heat inactivated fetal calf serum (FCS). The cells are seeded at 20,000 cells/well into 384-well black clear bottom sterile plates (Greiner). The seeded plates are incubated overnight at 37° C. in 5% CO2.
(§3) Fluorescence is measured for each well at 1 second intervals, and the height of each fluorescence peak is compared to the height of the fluorescence peak induced by 3 nM orexin-A with vehicle in place of antagonist. […] Optimized conditions were achieved by adjustment of pipetting speed and cell splitting regime. The calculated IC50 values may fluctuate depending on the daily cellular assay performance. Fluctuations of this kind are known to those skilled in the art.

[2] = molecular target: human orexin-2 receptor (Homo sapiens (Human), UniProt O43614); experiment: as above; format: cell-based; settings: read-out: IC50 OX2
Sequence of human orexin-2 receptor (O43614 whole entry): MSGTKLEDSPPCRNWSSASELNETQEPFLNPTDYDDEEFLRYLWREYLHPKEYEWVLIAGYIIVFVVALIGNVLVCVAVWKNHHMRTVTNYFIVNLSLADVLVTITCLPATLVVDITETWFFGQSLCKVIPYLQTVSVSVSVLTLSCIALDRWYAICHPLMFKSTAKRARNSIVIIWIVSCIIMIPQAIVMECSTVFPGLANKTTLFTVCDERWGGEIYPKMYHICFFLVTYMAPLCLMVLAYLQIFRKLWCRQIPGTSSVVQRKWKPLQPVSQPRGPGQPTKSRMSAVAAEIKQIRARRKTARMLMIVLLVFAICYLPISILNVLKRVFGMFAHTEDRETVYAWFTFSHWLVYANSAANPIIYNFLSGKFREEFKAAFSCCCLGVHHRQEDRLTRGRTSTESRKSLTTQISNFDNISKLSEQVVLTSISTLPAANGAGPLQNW
Experimental: as §1, §2, §3

[3] = compound incubation time of 10 min
[4] = CHO cells, 3 nM orexin-A, compound incubation time of 10 min, marked values are geometric means of n = 2-6
[5] = CHO cells, 3 nM orexin-A, compound incubation 120 min, marked values are geometric means of n = 2-6

| Structure (SMILES) | IC50 ([1]; compound incubation 120 min) [nM] | IC50 [2, 5] [nM] | also measured |
| --- | --- | --- | --- |
| COc1cccc(OC)c1[C@@H]1C[C@H](OC)C(=O)N1Cc1ccc(OC(F)(F)F)cc1 (racemic) [Example 254, rac-(3S*,5S*)-5-(2,6-dimethoxyphenyl)-3-methoxy-1-(4-(trifluoromethoxy)benzyl)pyrrolidin-2-one] |  |  | IC50 [1, 3]: 191 nM; IC50 [2, 4]: 168 nM |
| COc1cccc(OC)c1[C@@H]1C[C@@H](Cl)C(=O)N1Cc1ccc(OC(F)(F)F)cc1 (racemic) [Example 257, rac-(3R*,5S*)-3-chloro-5-(2,6-dimethoxyphenyl)-1-(4-(trifluoromethoxy)benzyl)pyrrolidin-2-one] |  |  | IC50 [1, 3]: 177 nM; IC50 [2, 4]: 563 nM |
| COc1cccc(OC)c1[C@@H]1C[C@H](Cl)C(=O)N1Cc1ccc(OC(F)(F)F)cc1 (racemic) [Example 261, rac-(3S*,5S*)-3-chloro-5-(2,6-dimethoxyphenyl)-1-(4-(trifluoromethoxy)benzyl)pyrrolidin-2-one] |  |  | IC50 [1, 3]: 65 nM; IC50 [2, 4]: 41 nM |
| COc1cccc(OC)c1[C@@H]1C[C@@H](OC)C(=O)N1Cc1ccc(OC(F)(F)F)cc1 (racemic) [Example 262, rac-(3R*,5S*)-5-(2,6-dimethoxyphenyl)-3-methoxy-1-(4-(trifluoromethoxy)benzyl)pyrrolidin-2-one] |  |  | IC50 [1, 3]: 3380 nM; IC50 [2, 4]: 6940 nM |
| CC[C@H]1C[C@@H](c2c(OC)cccc2OC)N(Cc2ccc(OC(F)(F)F)cc2)C1=O (racemic) [Example 263, rac-(3S*,5S*)-5-(2,6-dimethoxyphenyl)-3-ethyl-1-(4-(trifluoromethoxy)benzyl)pyrrolidin-2-one] |  |  | IC50 [1, 3]: 619 nM; IC50 [2, 4]: 3610 nM |
| O=C1[C@H](O)C[C@@H](c2cccc3c2OCCO3)N1Cc1ccc(OC(F)(F)F)cc1 (racemic) [Example 295, rac-(3R*,5S*)-5-(2,3-dihydrobenzo[b][1,4]dioxin-5-yl)-3-hydroxy-1-(4-(trifluoromethoxy)benzyl)pyrrolidin-2-one] | 3970 | 5010 |  |
| COc1ccccc1[C@@H]1C[C@H](F)C(=O)N1Cc1ccc(OC(F)(F)F)cc1 (racemic) [Example 297, rac-(3S*,5S*)-3-fluoro-5-(2-methoxyphenyl)-1-(4-(trifluoromethoxy)benzyl)pyrrolidin-2-one] | 1050 | 568 |  |
| COc1ccccc1[C@@H]1C[C@H](Cl)C(=O)N1Cc1ccc(OC(F)(F)F)cc1 (racemic) [Example 298, rac-(3S*,5S*)-3-chloro-5-(2-methoxyphenyl)-1-(4-(trifluoromethoxy)benzyl)pyrrolidin-2-one] | 1630 | 901 |  |
| CCOc1ccccc1[C@@H]1C[C@@H](O)C(=O)N1Cc1ccc(OC(F)(F)F)cc1 (racemic) [Example 299, rac-(3R*,5S*)-5-(2-ethoxyphenyl)-3-hydroxy-1-(4-(trifluoromethoxy)benzyl)pyrrolidin-2-one] | 1860 | 170 |  |
| COc1cccc(F)c1[C@@H]1C[C@H](F)C(=O)N1Cc1ccc(OC(F)(F)F)cc1 (racemic) [Example 301, rac-(3S*,5S*)-3-fluoro-5-(2-fluoro-6-methoxyphenyl)-1-(4-(trifluoromethoxy)benzyl)pyrrolidin-2-one] | 1700 | 66 |  |
| COc1cccc(Cl)c1[C@@H]1C[C@H](F)C(=O)N1Cc1ccc(OC(F)(F)F)cc1 (racemic) [Example 302, rac-(3S*,5S*)-5-(2-chloro-6-methoxyphenyl)-3-fluoro-1-(4-(trifluoromethoxy)benzyl)pyrrolidin-2-one] | 1380 | 103 |  |
| CCOc1ccccc1[C@@H]1C[C@H](Cl)C(=O)N1Cc1ccc(OC(F)(F)F)cc1 (racemic) [Example 304, rac-(3S*,5S*)-3-chloro-5-(2-ethoxyphenyl-1-(4-(trifluoromethoxy)benzyl)pyrrolidin-2-one] | 615 | 129 |  |
| COc1cccc(F)c1[C@@H]1C[C@H](Cl)C(=O)N1Cc1ccc(OC(F)(F)F)cc1 (racemic) [Example 305, rac-(3S*,5S*)-3-chloro-5-(2-fluoro-6-methoxyphenyl)-1-(4-(trifluoromethoxy)benzyl)pyrrolidin-2-one] | 396 | 96 |  |
| COc1cccc(Cl)c1[C@@H]1C[C@H](Cl)C(=O)N1Cc1ccc(OC(F)(F)F)cc1 (racemic) [Example 306, rac-(3S*,5S*)-3-chloro-5-(2-chloro-6-methoxyphenyl)-1-(4-(trifluoromethoxy)benzyl)pyrrolidin-2-one] | 740 | 108 |  |
| COc1cccc(C)c1[C@@H]1C[C@@H](O)C(=O)N1Cc1ccc(OC(F)(F)F)cc1 (racemic) [Example 309, rac-(3R*,5S*)-3-hydroxy-5-(2-methoxy-6-methylphenyl)-1-(4-(trifluoromethoxy)benzyl)pyrrolidin-2-one] | 2220 | 887 |  |
| COc1ccc(F)c(OC)c1[C@@H]1C[C@@H](O)C(=O)N1Cc1ccc(OC(F)(F)F)cc1 (racemic) [Example 311, rac-(3R*,5S*)-5-(3-fluoro-2,6-dimethoxyphenyl)-3-hydroxy-1-(4-(trifluoromethoxy)benzyl)pyrrolidin-2-one] |  | 742 |  |
| COc1ccc2ccccc2c1[C@@H]1C[C@@H](O)C(=O)N1Cc1ccc(OC(F)(F)F)cc1 (racemic) [Example 312, rac-(3R*,5S*)-3-hydroxy-5-(2-methoxynaphthalen-1-yl)-1-(4-(trifluoromethoxy)benzyl)pyrrolidin-2-one] | 2200 | 826 |  |
| COc1c(F)ccc(F)c1[C@@H]1C[C@@H](O)C(=O)N1Cc1ccc(OC(F)(F)F)cc1 (racemic) [Example 313, rac-(3R*,5S*)-5-(3,6-difluoro-2-methoxyphenyl)-3-hydroxy-1-(4-(trifluoromethoxy)benzyl)pyrrolidin-2-one] | 1460 | 1030 |  |
| COc1ccc(Cl)c(OC)c1[C@@H]1C[C@@H](O)C(=O)N1Cc1ccc(OC(F)(F)F)cc1 (racemic) [Example 314, rac-(3R*,5S*)-5-(3-chloro-2,6-dimethoxyphenyl)-3-hydroxy-1-(4-(trifluoromethoxy)benzyl)pyrrolidin-2-one] | 1100 | 920 |  |
| COc1c(F)ccc(F)c1[C@@H]1C[C@H](F)C(=O)N1Cc1ccc(OC(F)(F)F)cc1 (racemic) [Example 321, rac-(3S*,5S*)-5-(3,6-difluoro-2-methoxyphenyl)-3-fluoro-1-(4-(trifluoromethoxy)benzyl)pyrrolidin-2-one] |  | 405 |  |
| CCOc1ccc(F)c(F)c1[C@@H]1C[C@@H](O)C(=O)N1Cc1ccc(OC(F)(F)F)cc1 (racemic) [Example 338, rac-(3R*,5S*)-5-(6-ethoxy-2,3-difluorophenyl)-3-hydroxy-1-(4-(trifluoromethoxy)benzyl)pyrrolidin-2-one] |  | 58 |  |
| CC(C)Oc1cccc(F)c1[C@@H]1C[C@@H](O)C(=O)N1Cc1ccc(OC(F)(F)F)cc1 (racemic) [Example 394, rac-(3R*,5S*)-5-(2-fluoro-6-isopropoxyphenyl)-3-hydroxy-1-(4-(trifluoromethoxy)benzyl)pyrrolidin-2-one] |  | 77 |  |
| COc1cccc(F)c1[C@@H]1C[C@@H](Cl)C(=O)N1Cc1ccc2oc3ccccc3c2c1 (racemic) [Example 396, rac-(3R*,5S*)-3-chloro-1-(dibenzo[b,d]furan-2-ylmethyl)-5-(2-fluoro-6-methoxyphenyl)pyrrolidin-2-one] |  | 29 |  |
| COc1cccc(F)c1[C@@H]1C[C@H](Cl)C(=O)N1Cc1ccc2oc3ccccc3c2c1 (racemic) [Example 408, rac-(3S*,5S*)-3-chloro-1-(dibenzo[b,d]furan-2-ylmethyl)-5-(2-fluoro-6-methoxyphenyl)pyrrolidin-2-one] |  | 5 |  |
| COc1cccc(F)c1C1CCCC(=O)N1Cc1ccc(OC(F)(F)F)cc1 (stereo not drawn) [Example 220, 6-(2-fluoro-6-methoxyphenyl)-1-(4-(trifluoromethoxy)benzyl)piperidin-2-one] |  |  | IC50 [2, 4]: 156 nM |
| CCOc1cccc(F)c1C1CC(C)C(=O)N1Cc1ccc(OC(F)(F)F)cc1 (stereo not drawn) [Example 370, 5-(2-ethoxy-6-fluorophenyl)-3-methyl-1-(4-(trifluoromethoxy)benzyl)pyrrolidin-2-one] |  | 30 |  |
| CCOc1cccc(F)c1C1CC(C)C(=O)N1Cc1ccc(OC(F)F)cc1 (stereo not drawn) [Example 373, 1-(4-(difluoromethoxy)benzyl)-5-(2-ethoxy-6-fluorophenyl)-3-methylpyrrolidin-2-one] |  | 65 |  |
| CCOc1cccc(CN2C(=O)C(C)CC2c2c(F)cccc2OCC)c1 (stereo not drawn) [Example 376, 5-(2-ethoxy-6-fluorophenyl)-1-(3-ethoxybenzyl)-3-methylpyrrolidin-2-one] |  | 25 |  |
| CCCOc1ccc(CN2C(=O)C(C)CC2c2c(F)cccc2OCC)cc1 (stereo not drawn) [Example 377, 5-(2-ethoxy-6-fluorophenyl)-3-methyl-1-(4-propoxybenzyl)pyrrolidin-2-one] |  |  | IC50 [2]: 95 nM |
| CCCOc1cccc(F)c1C1CC(C)C(=O)N1Cc1ccc(OC(F)(F)F)cc1 (stereo not drawn) [Example 415, 5-(2-fluoro-6-propoxyphenyl)-3-methyl-1-(4-(trifluoromethoxy)benzyl)pyrrolidin-2-one] |  | 291 |  |
